Assay results: US7939286B2, “Enhancing a luminescent signal” (Targeting Systems, priority 2005, dated 2011)
Values joined by “and” are separate entries in the source; they are usually repeats but may differ in a detail not shown here. Equal entries are not always repeated.

Key:
Renilla luciferase = target: T1, Renilla luciferase (Renilla reniformis, UniProt P27652); experiment: Bioluminescence of Renilla luciferase in assay buffer (luminometer); assay type: biochemical; details: for Renilla luciferase bioluminescence t = 0 / Renilla luciferase bioluminescence t = 20: 1.3 μM substrate in 0.5xPBS, 0.025% NP40; for Renilla luciferase bioluminescence t = 0: t = 0 minutes; for Renilla luciferase bioluminescence t = 20: t = 20 minutes; for effect on magnitude (M at t = 1-2 minutes) of bioluminescent signal, Bacterial Rluc / effect on stability (S at time = 7-10 minutes) of bioluminescent signal, Bacterial Rluc: comparison: 1% EDTA to 0%, 0.2% NP40 to 0.025% or 0%, 4 μM coel. to 1.3 μM, 4 μM benzyl coel. to 1.3 μM; for stability of the luminescent signal in the presence of different detergents: 0.2% and 0.02% detergent; for effect of 0.2% detergent on Renilla luciferase activity (FIG. 7): 0.2% v/v detergent, T=0 and T=18 minutes
T1 construct: purchased Prolume/NanoLight Technologies, Pinetop, Ariz
T1 sequence (P27652 1-311): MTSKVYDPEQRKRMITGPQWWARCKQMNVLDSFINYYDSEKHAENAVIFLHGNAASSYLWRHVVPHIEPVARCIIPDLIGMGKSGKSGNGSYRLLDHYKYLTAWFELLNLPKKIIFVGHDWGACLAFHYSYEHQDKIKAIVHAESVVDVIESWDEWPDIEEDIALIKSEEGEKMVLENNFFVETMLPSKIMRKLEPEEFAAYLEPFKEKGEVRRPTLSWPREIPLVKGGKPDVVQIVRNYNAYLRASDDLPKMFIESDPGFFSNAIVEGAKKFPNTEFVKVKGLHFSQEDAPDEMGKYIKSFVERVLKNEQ
Text: Renilla luciferase is commercially available from Prolume/NanoLight Technologies, Pinetop, Ariz. Recombinant bacterial Gaussia luciferase was obtained from Prolume/Nanolight Technologies, Pinetop, Ariz.

[1] = tested on: purified recombinant bacterial Gaussia luciferase; experiment: Bioluminescence of recombinant bacterial Gaussia luciferase in assay buffer (luminometer); assay type: biochemical, Gaussia princeps; details: for Gaussia luciferase (bacterial) bioluminescence t = 0 / Gaussia luciferase (bacterial) bioluminescence t = 10: 1.3 μM substrate in 0.5xPBS; for Gaussia luciferase (bacterial) bioluminescence t = 0: t = 0 minutes; for Gaussia luciferase (bacterial) bioluminescence t = 10: t = 10 minutes; for effect on magnitude (M at t = 1-2 minutes) of bioluminescent signal, bacterial Gluc / effect on stability (S at time = 7-10 minutes) of bioluminescent signal, bacterial Gluc: comparison: 1% EDTA to 0%, 0.2% NP40 to 0.025% or 0%, 4 μM coel. to 1.3 μM, 4 μM benzyl coel. to 1.3 μM
Experimental: Renilla luciferase is commercially available from Prolume/NanoLight Technologies, Pinetop, Ariz. Recombinant bacterial Gaussia luciferase was obtained from Prolume/Nanolight Technologies, Pinetop, Ariz. […] An amount of powdered bacterial Gaussia luciferase obtained from Nanolight Technologies, Pinetop, Ariz., was dissolved in DMEM and diluted in control assay buffer until a reading could be obtained from a luminometer.

[2] = tested on: Gaussia luciferase secreted from mammalian cells; experiment: Bioluminescence of mammalian-secreted Gaussia luciferase in assay buffer (luminometer);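 for all read-outs here: mammalian cell culture supernatants containing secreted Gaussia luciferase were combined with coelenterazine assay buffer and light emission was read on a luminometer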; details: for Gaussia luciferase (mammalian) bioluminescence t = 0 / Gaussia luciferase (mammalian) bioluminescence t = 10: 1.3 μM substrate in 0.5xPBS; for Gaussia luciferase (mammalian) bioluminescence t = 0: t = 0 minutes; for Gaussia luciferase (mammalian) bioluminescence t = 10: t = 10 minutes; for effect on magnitude (M at t = 1-2 minutes) of bioluminescent signal, Mammalian Gluc / effect on stability (S at time = 7-10 minutes) of bioluminescent signal, Mammalian Gluc: comparison: 1% EDTA to 0%, 0.2% NP40 to 0.025% or 0%, 4 μM coel. to 1.3 μM, 4 μM benzyl coel. to 1.3 μM; for stability of the luminescent signal in the presence of different detergents: 0.2% and 0.02% detergent, no EDTA, read again after 15 minutes; for stability of the luminescent signal in the presence of different detergents / bioluminescence T = 0 / bioluminescence T = 15 / bioluminescence T = 45: 1.3 μM coelenterazine; for bioluminescence T = 0 / bioluminescence T = 15 / bioluminescence T = 45: 0.2% detergent final concentration in 0.5×PBS; for bioluminescence T = 0: T = 0 minutes; for bioluminescence T = 15: T = 15 minutes; for bioluminescence T = 45: T = 45 minutes; for RLU: zero time; for effect on magnitude (M) of bioluminescent signal, Mammalian Gluc: NaCl conc. 0.075M compared to 0.5M
Text: Reagents used in the examples include: PBS (Amresco, Solon, Ohio), PBS with Ca/Mg/K (Invitrogen, Carlsbad, Calif.), Igepal CA-630 referred to throughout as NP40 (Sigma Aldrich, St. Louis, Mo.), Standard Renilla assay reagent (Promega, Madison, Wis.), coelenterazine and benzyl coelenterazzine (Prolume/NanoLight Technologies, Pinetop, Ariz.), expression vector for Gaussia luciferase in mammals (New England Biolabs, Inc., Ipswich, Mass.), Dulbecco's minimal essential medium (DMEM) (Invitrogen, Carlsbad, Calif.) used for diluting mammalian and bacterial expressed Gaussia luciferase. Measurements of bioluminescence were carried out with a luminometer (Turner TD2020 luminometer, Turner BioSystems, Sunnyvale, Calif.).
An amount of this coelenterazine solution was added to the assay buffer to a final concentration in the range of I-10 μM. 50 μl of the assay buffer was mixed with 20 μl of sample containing luciferase and bioluminescence was measured using a luminometer.
In this example, 20 μl of mammalian Gaussia luciferase samples (cell supernatants) were mixed with 8 μl of the indicated detergents at 2% and 0.2% concentration (final concentration of detergents in assay solution was 0.2% and 0.02%) and 50 μl of the Gaussia luciferase assay reagent (0.5×PBS, no EDTA, 1.3 μM coelenterazine) and read in a Turner TD2020 Luminometer, Turner BioSystems, Sunnyvale, Calif. The samples were read again after 15 minutes to evaluate the stability of the luminescent signal in the presence of different detergents.

Firefly luciferase = Firefly luciferase (Photinus pyralis, UniProt P08659); experiment: Summary of effect on bioluminescent signal of firefly luciferase; assay type: biochemical
Sequence of Firefly luciferase (P08659 whole entry): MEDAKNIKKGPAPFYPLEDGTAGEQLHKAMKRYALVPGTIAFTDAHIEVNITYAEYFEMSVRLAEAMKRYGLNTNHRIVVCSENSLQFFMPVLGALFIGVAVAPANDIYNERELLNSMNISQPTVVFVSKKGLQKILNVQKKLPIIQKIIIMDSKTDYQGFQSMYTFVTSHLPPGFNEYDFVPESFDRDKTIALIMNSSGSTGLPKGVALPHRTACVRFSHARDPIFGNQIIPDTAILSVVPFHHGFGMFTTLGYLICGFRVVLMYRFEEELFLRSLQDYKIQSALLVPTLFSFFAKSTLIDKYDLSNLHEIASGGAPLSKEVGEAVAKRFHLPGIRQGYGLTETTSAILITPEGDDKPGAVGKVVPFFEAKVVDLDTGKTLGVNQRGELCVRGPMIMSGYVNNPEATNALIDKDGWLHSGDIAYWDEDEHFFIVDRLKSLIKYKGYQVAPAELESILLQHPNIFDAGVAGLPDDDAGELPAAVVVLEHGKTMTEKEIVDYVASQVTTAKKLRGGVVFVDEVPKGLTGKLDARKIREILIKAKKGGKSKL

[3] = 1.3 μM substrate, 0.5×PBS, 1% EDTA, 0.025% NP40, compared with 1.3 μM coelenterazine

Compound | effect on magnitude (M at t = 1-2 minutes) of bioluminescent signal, Bacterial Rluc (Renilla luciferase) | effect on stability (S at time = 7-10 minutes) of bioluminescent signal, Bacterial Rluc (Renilla luciferase) | effect on magnitude (M at t = 1-2 minutes) of bioluminescent signal, bacterial Gluc [1] | effect on magnitude (M at t = 1-2 minutes) of bioluminescent signal, Mammalian Gluc [2] | effect on stability (S at time = 7-10 minutes) of bioluminescent signal, Mammalian Gluc [2] | effect of 0.2% detergent on Renilla luciferase activity (FIG. 7) (Renilla luciferase) | bioluminescence T = 0 ([2]; 1% EDTA) [RLU] | bioluminescence T = 15 ([2]; 1% EDTA) [RLU] | bioluminescence T = 45 ([2]; 1% EDTA) [RLU] | also measured
benzyl coelenterazine [Benzyl Coel.] | M up | S up | M down | M down | S down |  |  |  |  | Renilla luciferase bioluminescence t = 0 (Renilla luciferase): 9036 and 7687 and 7955; Renilla luciferase bioluminescence t = 20 (Renilla luciferase): 2234 and 1944 and 1359; suitability as substrate (FIG. 9) (Renilla luciferase; 1.3 μM substrate, 0.5×PBS, 0.025% NP40, 1% EDTA, compared with 1.3 μM coelenterazine): good substrate; Gaussia luciferase (bacterial) bioluminescence t = 0 ([1]; 0.025% NP40): 81.75 and 83 and 84; Gaussia luciferase (bacterial) bioluminescence t = 10 ([1]; 0.025% NP40): 7.9 and 8.1; suitability as substrate (FIG. 8) [1, 3]: poor substrate; effect on stability (S at time = 7-10 minutes) of bioluminescent signal, bacterial Gluc [1]: S down; Gaussia luciferase (mammalian) bioluminescence t = 0 ([2]; 0.025% NP40): 34 and 30 and 31; Gaussia luciferase (mammalian) bioluminescence t = 10 ([2]; 0.025% NP40): 3.49 and 3.6 and 3.66; suitability as substrate (FIG. 8) [2, 3]: poor substrate
NP40 | M down | S up | M down | M down | S up | stabilizing effect | 87 | 112 | 79 | effect on stability (S at time = 7-10 minutes) of bioluminescent signal, Firefly (Firefly luciferase; 0.2% NP40 compared to 0.025% or 0%): S up; stability of the luminescent signal in the presence of different detergents (Renilla luciferase): optimum stability; effect on stability (S at time = 7-10 minutes) of bioluminescent signal, bacterial Gluc [1]: S up; stability of the luminescent signal in the presence of different detergents ([2]; 0.5×PBS): optimum stability
[Cl-].[Na+] [NaCl, sodium chloride] |  |  |  |  |  |  |  |  |  | RLU ([2]; 0.175M NaCl in adjusted 0.5 × PBS + 1% EDTA + 0.025% NP40 + 1.3 μM coel.): 1322 RLU and 1350 RLU and 1242 RLU; RLU ([2]; 0.275M NaCl in adjusted 0.5 × PBS + 1% EDTA + 0.025% NP40 + 1.3 μM coel.): 1364 RLU and 1252 RLU and 1204 RLU; RLU ([2]; 0.375M NaCl in adjusted 0.5 × PBS + 1% EDTA + 0.025% NP40 + 1.3 μM coel.): 1129 RLU and 1098 RLU and 1246 RLU; RLU ([2]; 0.5M NaCl in adjusted 0.5 × PBS + 1.3 μM coel.): 1212 RLU and 701 RLU; RLU ([2]; 0.575M NaCl in adjusted 0.5 × PBS + 1% EDTA + 0.025% NP40 + 1.3 μM coel.): 1049 RLU and 1035 RLU and 1149 RLU; RLU ([2]; 1M NaCl in adjusted 0.5 × PBS + 1.3 μM coel.): 760 RLU and 750 RLU; effect on magnitude (M) of bioluminescent signal, Mammalian Gluc ([2]; + EDTA): M same + EDTA; effect on magnitude (M) of bioluminescent signal, Mammalian Gluc ([2]; −EDTA-NP40): M down
Oc1ccc(Cc2nc3c(Cc4ccccc4)nc(-c4ccc(O)cc4)cn3c2O)cc1 [Coel., coelenterazine] | M up | S down | M up | M up |  |  |  |  |  | Renilla luciferase bioluminescence t = 0 (Renilla luciferase): 2296 and 1790 and 2520; Renilla luciferase bioluminescence t = 20 (Renilla luciferase): 194 and 139 and 211; Gaussia luciferase (bacterial) bioluminescence t = 0 ([1]; 0.025% NP40): 1630 and 1837 and 1903; Gaussia luciferase (bacterial) bioluminescence t = 10 ([1]; 0.025% NP40): 58 and 59 and 60; effect of coelenterazine concentrations greater than 4 μM on luciferase activity (FIG. 4B) ([1]; 1.3-25 μM coelenterazine): no significant increases in luciferase activity; Gaussia luciferase (mammalian) bioluminescence t = 0 ([2]; 0.025% NP40): 594 and 565 and 556; Gaussia luciferase (mammalian) bioluminescence t = 10 ([2]; 0.025% NP40): 31 and 30 and 29; effect of coelenterazine concentrations greater than 4 μM on luciferase activity (FIG. 4A) ([2]; 1.3-25 μM coelenterazine in 0.5×PBS, 1% EDTA, 0.025% NP40, zero time): no significant increase in luciferase activity
Triton X-100 |  |  |  |  |  | stabilizing effect | 59 | 80 | 63 | stability of the luminescent signal in the presence of different detergents (Renilla luciferase): optimum stability; stability of the luminescent signal in the presence of different detergents ([2]; 0.5×PBS): optimum stability
CCCCCCCC/C=C\CCCCCCCC(=O)OCCOCC(OCCO)C1OCC(OCCO)C1OCCO (stereo not shown) [Tween80] |  |  |  |  |  | stabilizing effect | 128 | 101 | 58 | 
deoxycholate [DOC] |  |  |  |  |  |  | 4 | 2 | 2 | 
O=C(O)CN(CCN(CC(=O)O)CC(=O)O)CC(=O)O [EDTA] | M down | S down | M down | M down | S up |  |  |  |  | effect on magnitude (M at t = 1-2 minutes) of bioluminescent signal, Firefly (Firefly luciferase; 1% EDTA compared to 0%): M down
CCCCCCCCCCCCOS(=O)(=O)[O-].[Na+] [SDS, sodium dodecyl sulfate] |  |  |  |  |  |  | 0 | 0 | 0 | 
